Test results published in article PMC2957478 (Bioorganic & medicinal chemistry letters, 2009).

Biological target: PAI-1 (Homo sapiens, UniProt P05121)
Settings: for inhibitory activity towards PAI-1 (in words): in vitro

PAI-1, sequence (P05121 24-402, species assumed): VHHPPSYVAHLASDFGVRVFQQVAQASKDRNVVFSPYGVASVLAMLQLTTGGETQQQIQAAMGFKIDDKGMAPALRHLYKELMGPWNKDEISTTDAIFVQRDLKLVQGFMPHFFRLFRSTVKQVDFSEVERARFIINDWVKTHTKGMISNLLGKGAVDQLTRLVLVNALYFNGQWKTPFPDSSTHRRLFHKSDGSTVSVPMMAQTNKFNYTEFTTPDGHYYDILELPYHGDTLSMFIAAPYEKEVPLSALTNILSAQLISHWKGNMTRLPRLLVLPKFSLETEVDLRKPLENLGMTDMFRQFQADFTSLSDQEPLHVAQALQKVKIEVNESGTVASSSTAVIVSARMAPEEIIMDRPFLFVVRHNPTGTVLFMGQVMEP

Row | SMILES | inhibitory activity towards PAI-1 (in words) | also measured
1 | CCN(CCN(CC)S(=O)(=O)c1cc(F)c(O)c(F)c1)S(=O)(=O)c1cc(F)c(O)c(F)c1 [compound 13, bis-3,5-difluoro-4-hydroxybenzenesulfonamide] | – | fold less potent against PAI-1 than the 3,4-dihydroxy version (3b) (ratio of IC50 values vs 3b): roughly 15 fold
2 | O=S(=O)(c1ccc(O)c(O)c1)N1CCN(S(=O)(=O)c2ccc(O)c(O)c2)CC1 [compound 4] | lacked significant inhibitory activity towards PAI-1 | –
3 | CCN(CCN(CC)S(=O)(=O)c1cc(O)ccc1O)S(=O)(=O)c1cc(O)ccc1O [compound 7] | lacked significant potency towards PAI-1 | –
4 | CCN(CCN(CC)S(=O)(=O)c1ccc(O)c(O)c1)S(=O)(=O)c1ccc(O)c(O)c1 [3b] | – | increase in inhibitor potency against PAI-1 compared to the non-alkylated version 3a (ratio of IC50 values vs 3a): about 55 fold
